Test results: ChEMBL document CHEMBL1140277, “Antibiotics GE23077, novel inhibitors of bacterial RNA polymerase. Part 3: Chemical derivatization” (Bioorg Med Chem Lett, 2005)
Converted amounts (≈) assume the structure as drawn. Numbered stars: 1 amine (or outer) side, 2 acyl side, 3 side chain; on linkers, the order of the positions; unused ones are H or OH. Square brackets hold non-standard residues; d marks the D form. Peptide text beside a SMILES is read from it. * marks the point of attachment. ξ: configuration not given here. ξGln(3,4-(OH)2) = NC(=O)C(O)C(O)C(N)C(=O)O; isoSer(2S) = O=C([C@@H](O)CN[*:1])[*:2]; ξAllylGly = C=CCC(N)C(=O)O; X1 = CC(NCc1ccccc1)C(=O)*; ξE = NC(CCC(=O)O)C(=O)O; Dap = NC[C@H](N)C(=O)O; X2 = C/C=C(/C)C(=O)*

Experiments:
[1] = Minimum inhibitory concentration against Moraxella catarrhalis using broth microdilution method; format: functional
[2] = Inhibitory concentration against RNA polymerase from Escherichia coli using cell freei transcription assay; format: functional

`CC(NC(=O)/C=C/c1ccccc1)C(=O)NC[C@@H]1NC(=O)C(C(=O)O)NC(=O)[C@@H](O)CNC(=O)[C@H]([C@@H](C)O)NC(=O)C(C(O)C(O)C(N)=O)NC(=O)[C@H](C(C)C)NC(=O)[C@H](CO)NC1=O` (stereo partly specified) gave an MIC [1] of 128 µg/mL (≈ 139 µM) and an IC50 [2] of 0.08 µg/mL (≈ 0.0867 µM).

In the case of `C/C=C(/C)C(=O)NC[C@@H]1NC(=O)C(C(=O)N(C)OC)NC(=O)[C@@H](O)CNC(=O)[C@H]([C@@H](C)O)NC(=O)C(C(O)C(O)C(N)=O)NC(=O)[C@H](C(C)C)NC(=O)[C@H](CO)NC1=O` (stereo partly specified), the IC50 [2] is reported as 0.4 µg/mL (≈ 0.472 µM).

In the case of `CC(NC(=O)Cc1ccc(-c2ccccc2)cc1)C(=O)NC[C@@H]1NC(=O)C(C(=O)O)NC(=O)[C@@H](O)CNC(=O)[C@H]([C@@H](C)O)NC(=O)C(C(O)C(O)C(N)=O)NC(=O)[C@H](C(C)C)NC(=O)[C@H](CO)NC1=O` (stereo partly specified), the MIC [1] is reported as greater than 512 µg/mL and the IC50 [2] is reported as 0.22 µg/mL (≈ 0.223 µM).

`CC(N)C(=O)NC[C@@H]1NC(=O)C(C(=O)O)NC(=O)[C@@H](O)CNC(=O)[C@H]([C@@H](C)O)NC(=O)C(C(O)C(O)C(N)=O)NC(=O)[C@H](C(C)C)NC(=O)[C@H](CO)NC1=O` (stereo partly specified) gave an MIC [1] of 64 µg/mL (≈ 80.7 µM) and an IC50 [2] of 0.28 µg/mL (≈ 0.353 µM).

In the case of `C=CCC1NC(=O)[C@@H](O)CNC(=O)[C@H]([C@@H](C)O)NC(=O)C(C(O)C(O)C(N)=O)NC(=O)[C@H](C(C)C)NC(=O)[C@H](CO)NC(=O)[C@H](CNC(=O)/C(C)=C\C)NC1=O` (stereo partly drawn) (cyclo([Dap](X2)SV[ξGln(3,4-(OH)2)]T[isoSer(2S)][ξAllylGly])), the MIC [1] is reported as 32 µg/mL (≈ 40 µM) and the IC50 [2] is reported as 2.24 µg/mL (≈ 2.8 µM).

Compound `C/C=C(/C)C(=O)NC[C@@H]1NC(=O)C(CCC(=O)O)NC(=O)[C@@H](O)CNC(=O)[C@H]([C@@H](C)O)NC(=O)C(C(O)C(O)C(N)=O)NC(=O)[C@H](C(C)C)NC(=O)[C@H](CO)NC1=O` (stereo partly drawn) (cyclo([Dap](X2)SV[ξGln(3,4-(OH)2)]T[isoSer(2S)][ξE])) has an MIC [1] of 8 µg/mL (≈ 9.62 µM) and an IC50 [2] of 0.2 µg/mL (≈ 0.24 µM).

Work on `CCCCCCC(CCCC)C(=O)NC(C)C(=O)NC[C@@H]1NC(=O)C(C(=O)O)NC(=O)[C@@H](O)CNC(=O)[C@H]([C@@H](C)O)NC(=O)C(C(O)C(O)C(N)=O)NC(=O)[C@H](C(C)C)NC(=O)[C@H](CO)NC1=O` (stereo partly specified) yielded an MIC [1] of 512 µg/mL (≈ 525 µM) and an IC50 [2] of 0.13 µg/mL (≈ 0.133 µM).

Compound `CC(NCC1CCCCC1)C(=O)NC[C@@H]1NC(=O)C(C(=O)O)NC(=O)[C@@H](O)CNC(=O)[C@H]([C@@H](C)O)NC(=O)C(C(O)C(O)C(N)=O)NC(=O)[C@H](C(C)C)NC(=O)[C@H](CO)NC1=O` (stereo partly specified) has an MIC [1] of 16 µg/mL (≈ 18 µM) and an IC50 [2] of 0.42 µg/mL (≈ 0.472 µM).

Compound `C/C=C(/C)C(=O)NC[C@@H]1NC(=O)C(C(=O)OCC)NC(=O)[C@@H](O)CNC(=O)[C@H]([C@@H](C)O)NC(=O)C(C(O)C(O)C(N)=O)NC(=O)[C@H](C(C)C)NC(=O)[C@H](CO)NC1=O` (stereo partly specified) has an MIC [1] of 64 µg/mL (≈ 76.9 µM) and an IC50 [2] of 0.1 µg/mL (≈ 0.12 µM).

For `CCCCCCCCC(=O)NC(C)C(=O)NC[C@@H]1NC(=O)C(C(=O)O)NC(=O)[C@@H](O)CNC(=O)[C@H]([C@@H](C)O)NC(=O)C(C(O)C(O)C(N)=O)NC(=O)[C@H](C(C)C)NC(=O)[C@H](CO)NC1=O` (stereo partly specified), the MIC [1] was 256 µg/mL (≈ 274 µM) and the IC50 [2] was 0.09 µg/mL (≈ 0.0965 µM).

For `CC(NCc1ccccc1)C(=O)NC[C@@H]1NC(=O)C(C(=O)O)NC(=O)[C@@H](O)CNC(=O)[C@H]([C@@H](C)O)NC(=O)C(C(O)C(O)C(N)=O)NC(=O)[C@H](C(C)C)NC(=O)[C@H](CO)NC1=O` (stereo partly specified), the MIC [1] was 32 µg/mL (≈ 36.2 µM) and the IC50 [2] was 0.07 µg/mL (≈ 0.0793 µM).

In the case of `CC(NCc1ccc(C(F)(F)F)cc1)C(=O)NC[C@@H]1NC(=O)C(C(=O)O)NC(=O)[C@@H](O)CNC(=O)[C@H]([C@@H](C)O)NC(=O)C(C(O)C(O)C(N)=O)NC(=O)[C@H](C(C)C)NC(=O)[C@H](CO)NC1=O` (stereo partly specified), the MIC [1] is reported as 256 µg/mL (≈ 269 µM) and the IC50 [2] is reported as 0.05 µg/mL (≈ 0.0526 µM).

In the case of `C/C=C(/C)C(=O)NC[C@@H]1NC(=O)[C@@H](C(=O)O)NC(=O)[C@@H](O)CNC(=O)[C@H]([C@@H](C)O)NC(=O)C(C(O)C(O)C(N)=O)NC(=O)[C@H](C(C)C)NC(=O)[C@H](CO)NC1=O` (stereo partly specified), the MIC [1] is reported as 8 µg/mL (≈ 9.95 µM) and the IC50 [2] is reported as 0.03 µg/mL (≈ 0.0373 µM).

For `CC(NCc1ccccc1)C(=O)NC[C@@H]1NC(=O)CNC(=O)[C@@H](O)CNC(=O)[C@H]([C@@H](C)O)NC(=O)C(C(O)C(O)C(N)=O)NC(=O)[C@H](C(C)C)NC(=O)[C@H](CO)NC1=O` (stereo partly drawn) (cyclo([Dap](X1)SV[ξGln(3,4-(OH)2)]T[isoSer(2S)]G)), the MIC [1] was 128 µg/mL (≈ 153 µM) and the IC50 [2] was 1.05 µg/mL (≈ 1.25 µM).

Work on `CC(NCC(F)(F)F)C(=O)NC[C@@H]1NC(=O)C(C(=O)O)NC(=O)[C@@H](O)CNC(=O)[C@H]([C@@H](C)O)NC(=O)C(C(O)C(O)C(N)=O)NC(=O)[C@H](C(C)C)NC(=O)[C@H](CO)NC1=O` (stereo partly specified) yielded an MIC [1] greater than 512 µg/mL and an IC50 [2] of 0.17 µg/mL (≈ 0.194 µM).

In the case of `C/C=C(/C)C(=O)NC[C@@H]1NC(=O)C(C(=O)OC)NC(=O)[C@@H](O)CNC(=O)[C@H]([C@@H](C)O)NC(=O)C(C(O)C(O)CNC(=O)C(CCCC)CCCCCC)NC(=O)[C@H](C(C)C)NC(=O)[C@H](CO)NC1=O` (stereo partly specified), the MIC [1] is reported as greater than 512 µg/mL and the IC50 [2] is reported as greater than 3.2 µg/mL.
